pIC50: −log10 of the molar value.
Legend:
Assay type in all cases: cell-based
[1] = test system: KRAS G12D mutant human gastric cancer cell AGS; test: 3D cell proliferation inhibition assay, AGS; conditions: 168 h, 3D culture, 7 days, CTG
In short: (§1)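 Cells were seeded in low-adsorption 96-well plates at 5×10^2 cells/well (MKN1 at 1×10^3) with compounds at final 10000-0.026 nM, 0.2% DMSO, and grown 7 days at 37° C. CTG luminescence gave inhibition relative to DMSO and medium-only controls, and IC50 came from a log-concentration curve fit.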

[2] = molecular target: T1, KRAS G12V protein in SW900 cells (Homo sapiens, UniProt P01116, G12V); test: KRAS degradation assay (Western Blot) in SW900 cells; conditions: 24 h
T1 construct: endogenous in cells; host or cells: SW900
T1 sequence (P01116 1-188 isoform P01116-2 G12V): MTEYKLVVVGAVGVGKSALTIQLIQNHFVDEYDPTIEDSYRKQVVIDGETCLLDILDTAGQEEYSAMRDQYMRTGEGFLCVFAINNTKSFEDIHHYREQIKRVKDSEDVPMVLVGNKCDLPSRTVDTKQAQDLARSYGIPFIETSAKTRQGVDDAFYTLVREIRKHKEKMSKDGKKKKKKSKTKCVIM
In short: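 Compounds were added at final concentrations of 0.03–3000 nM (0.25% DMSO) to overnight-plated cells and left for 24 h. Lysates, equalised by BCA, were immunoblotted for KRAS and β-actin, and DC50 and Dmax were derived from normalised band intensities relative to control.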

[3] = test system: KRAS G12D mutant human lung cancer cell A427; test: 3D cell proliferation inhibition assay, A427; conditions: A-427, 168 h, 3D culture, 7 days, CTG
In short: as §1

[4] = test system: KRAS G12V mutant human colorectal cancer cell SW620; test: 3D cell proliferation inhibition assay, SW620; conditions: SW-620, 168 h, 3D culture, 7 days, CTG
In short: as §1

[5] = test system: KRAS G12V mutant human lung squamous carcinoma cell SW900; test: 3D cell proliferation inhibition assay, SW900; conditions: SW900, 168 h, 3D culture, 7 days, CTG
[6] = test system: KRAS WT human gastric cancer cell MKN1; test: 3D cell proliferation inhibition assay, MKN1; conditions: MKN-1, 168 h, 3D culture, 7 days, CTG
In short: as §1

[7] = test system: KRAS G12D mutant human metastatic pancreatic cancer cell AsPc-1; test: 3D cell proliferation inhibition assay, AsPc-1; conditions: ASPC1, 168 h, 3D culture, 7 days, CTG
In short: as §1

[8] = test system: KRAS G12C mutant human non-small cell lung cancer cell NCI-H358; test: 3D cell proliferation inhibition assay, NCI-H358; conditions: NCI-H358, 168 h, 3D culture, 7 days, CTG
In short: as §1

[9] = molecular target: T2, KRAS G12D protein in AsPc-1 cells (Homo sapiens, UniProt P01116, G12D); test: KRAS degradation assay (Western Blot) in AsPc-1 cells; conditions: for DC50: 24 h; for Dmax: ASPC1, 24 h
T2 construct: endogenous in cells; host or cells: AsPc-1
T2 sequence (P01116 1-188 isoform P01116-2 G12D): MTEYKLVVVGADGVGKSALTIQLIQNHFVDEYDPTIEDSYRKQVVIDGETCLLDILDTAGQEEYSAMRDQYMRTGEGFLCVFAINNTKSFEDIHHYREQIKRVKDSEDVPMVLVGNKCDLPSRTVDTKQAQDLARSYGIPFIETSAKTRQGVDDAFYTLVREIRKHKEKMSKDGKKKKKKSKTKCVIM
Excerpt: (§2) Test Example 5: KRAS G12C, KRAS G12D, KRAS G12V, KRAS G13D, and KRAS WT (Expanded) Degradation Assays
(§3) The degradation effect of the compounds on KRAS was investigated on KRAS G12C mutant human non-small cell lung cancer cell NCI-H358, KRAS G12D mutant human metastatic pancreatic cancer cell AsPc-1, KRAS G12D mutant human lung cancer cell A427, KRAS G12V mutant human colorectal cancer cell SW620, KRAS G12V mutant human lung cancer cell SW900, KRAS G13D mutant human colorectal cancer epithelial cell DLD-1, and KRAS WT human gastric cancer cell MKN-1. The specific procedures were as follows: 0.95 mL of cells were seeded into each well of a 24-well cell culture plate to achieve a cell density of 5×10^5 cells/well; and the cell plate was incubated in an incubator at 37° C. with 5% CO2 overnight. Then 50 μL of the compound solution after dilution was added to each of the wells with the corresponding cells, so that the final concentration of the compound was in a range of 0.03-3000 nM. The final concentration of DMSO was 0.25%. After the compounds were added, the cell plate was incubated in an incubator at 37° C. with 5% CO2 for 24 h. The culture medium in the 24-well cell culture plate was then removed, and the plate was washed twice with 1×PBS (KeyGEN). 120 μL of RIPA (strong) lysis buffer (Beyotime) (supplemented with 1 mM phenylmethylsulfonyl fluoride, a protease inhibitor mixture (Beyotime), and a protease phosphatase inhibitor mixture (Beyotime)) was added to lyse adherent SW900 cells at the bottom of the cell culture plate. After the plate was left to stand on ice for 30 min, the protein lysate in each well was transferred to a 1.5 mL centrifuge tube and centrifuged at 15000 g for 20 min at 4° C. The cell lysate supernatants after centrifugation were cryopreserved in a refrigerator at −80° C. for later use.
(§4) After the samples of the cell lysate supernatants that had been prepared were thawed from the refrigerator at −80° C., the total protein concentrations of the cell lysates were determined using a BCA protein quantification kit (Tiangen). The total protein concentrations of the samples were then adjusted to 0.5 μg/μL with PBS and 5×SDS-PAGE protein loading buffer (Beyotime), and the samples were incubated in a water bath at 100° C. for 15 min. The samples were then incubated in an ice bath for 5 min and centrifuged at 14000 g for 1 min at 4° C., and the supernatants were mixed well as loading samples for the Western Blot assay. The samples were loaded into wells of a 10% precast gel (KeyGEN) with a loading volume of 10 μL (total protein: 5 μg), a sufficient Tris-MOPS-SDS running buffer (Adamas) was added, and then electrophoresis was performed at a constant voltage of 120 V for 55 min. After the electrophoresis, the proteins on the gel were transferred to PVDF membranes at a constant current of 250 mA for 55 min. After the membrane transfer, the PVDF membranes were incubated in 1× Quick Block blocking buffer (Beyotime)at room temperature for 30 min. After the blocking, the PVDF membranes were separately incubated at 4° C. overnight with the KRAS antibody (Abcam) diluted in a ratio of 1:1000 and the β-actin antibody (Abcam) diluted in a ratio of 1:2000 in 5% BSA as the diluent, and then washed with 1×TBST buffer (2.4 g of Tris, 8.8 g of NaCl, 1.5 mL of Tween 20, with pH adjusted to 7.4, with the volume brought to 1 L) 3 times for 10 min/time. The membranes were incubated with a secondary antibody (Abcam) diluted in 5% BSA at room temperature for 2 h, and then washed with 1×TBST buffer 3 times for 10 min/time. Finally, the membranes were incubated with Clarity Western ECL Substrate (BIO-RAD) for 5 min for luminescence and color development, and a ChemiScope 6200 Touch chemiluminescence imaging system (Clinx) was used for color development and protein mapping. Gray value analysis of the protein maps was performed using the chemiluminescence analysis software (Clinx). […]

[10] = test system: KRAS G13D mutant human colorectal cancer epithelial cell DLD-1; test: 3D cell proliferation inhibition assay, DLD-1; conditions: DLD-1, 168 h, 3D culture, 7 days, CTG
In short: as §1

[11] = molecular target: T3, KRAS G13D protein in DLD-1 cells (Homo sapiens, UniProt P01116, G13D); test: KRAS degradation assay (Western Blot) in DLD-1 cells; conditions: 24 h
T3 construct: endogenous in cells; host or cells: DLD-1
T3 sequence (P01116 1-188 isoform P01116-2 G13D): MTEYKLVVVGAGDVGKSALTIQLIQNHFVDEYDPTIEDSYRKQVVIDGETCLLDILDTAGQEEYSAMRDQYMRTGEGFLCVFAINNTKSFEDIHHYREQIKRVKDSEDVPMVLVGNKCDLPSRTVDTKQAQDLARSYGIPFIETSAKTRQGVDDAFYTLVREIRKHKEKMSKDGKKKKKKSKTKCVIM
Excerpt: as §2, §3, §4

[12] = molecular target: T4, KRAS G12V protein in SW620 cells (Homo sapiens, UniProt P01116, G12V); test: KRAS degradation assay (Western Blot) in SW620 cells
T4 construct: endogenous in cells; host or cells: SW620
T4 sequence (P01116 1-188 isoform P01116-2 G12V): as the sequence (P01116 1-188 isoform P01116-2 G12V) above
In short: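 DC50 and Dmax were fitted from KRAS band intensity, corrected to β-actin and expressed against untreated control, after Western blotting of 5 μg lysate protein. Cells were exposed for 24 h at 37 °C to 0.03-3000 nM compound (final) with 0.25% DMSO.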

| SMILES | pIC50 [1] | DC50 [2] [nM] | Dmax [2] [%] | pIC50 [3] | pIC50 [4] | pIC50 [5] | pIC50 [6] | pIC50 [7] | pIC50 [8] | DC50 [9] [nM] | Dmax [9] [%] | pIC50 [10] | DC50 [11] [nM] | Dmax [11] [%] | DC50 ([12]; 24 h) [nM] | Dmax ([12]; SW-620, 24 h) [%] |
| --- | --- | --- | --- | --- | --- | --- | --- | --- | --- | --- | --- | --- | --- | --- | --- | --- |
| C#Cc1c(F)ccc2cc(O)cc(-c3ncc4c(N5CCCC(C)(N)C5)nc(OCC5(CN6CCN(CC7CCC8(CC7)CCN(C(=O)c7ccc(OC)c(N9CCC(=O)NC9=O)c7)CC8)CC6)CC5)nc4c3F)c12 (stereo not drawn) [Example 163, 1-(5-(9-((4-((1-(((4-(3-amino-3-methylpiperidin-1-yl)-7-(8-ethynyl-7-fluoro-3-hydroxynaphthalen-1-yl)-8-fluoropyrido[4,3-d]pyrimidin-2-yl)oxy)methyl)cyclopropyl)methyl)piperazin-1-yl)methyl)-3-azaspiro[5.5]undecane-3-carbonyl)-2-methoxyphenyl)dihydropyrimidine-2,4(1H,3H)-dione] | 6.23 | 251 | 71 | 6.25 | 6.54 | 6.63 | 6.43 | 6.43 | 6.38 | 185 | 89 |  |  |  |  |  |
| CCc1cccc2cc(O)cc(-c3ccc4c(N5CCC[C@@](C)(O)C5)nc(OCC5(CN6CCN(CC7CCC8(CC7)CCN(C(=O)c7ccc(C)c(N9CCC(=O)NC9=O)c7)CC8)CC6)CC5)nc4c3F)c12 [Example 49, (R)-1-(5-(9-((4-((1-(((7-(8-ethyl-3-hydroxynaphthalen-1-yl)-8-fluoro-4-(3-hydroxy-3-methylpiperidin-1-yl)quinazolin-2-yl)oxy)methyl)cyclopropyl)methyl)piperazin-1-yl)methyl)-3-azaspiro[5.5]undecane-3-carbonyl)-2-methylphenyl)dihydropyrimidine-2,4(1H,3H)-dione] |  | 62.9 | 75.3 |  | 7.56 | 6.28 | 7.41 |  | 7.17 | 822 | 57 | 7.34 |  |  |  |  |
| CCc1c(F)ccc2cc(O)cc(-c3ncc4c(N5CCC[C@@](C)(O)C5)nc(OCC5(CN6CCN(CC7CCC8(CC7)CCN(C(=O)c7ccc(OC)c(N9CCC(=O)NC9=O)c7)CC8)CC6)CC5)nc4c3F)c12 [Example 42, (R)-1-(5-(9-((4-((1-(((7-(8-ethyl-7-fluoro-3-hydroxynaphthalen-1-yl)-8-fluoro-4-(3-hydroxy-3-methylpiperidin-1-yl)pyrido[4,3-d]pyrimidin-2-yl)oxy)methyl)cyclopropyl)methyl)piperazin-1-yl)methyl)-3-azaspiro[5.5]undecane-3-carbonyl)-2-methoxyphenyl)dihydropyrimidine-2,4(1H,3H)-dione] | ≥ 7.30 | ≤ 50 | 80 to 100 | 6.30 to 7.00 | 8.67 | ≥ 7.30 | ≥ 7.30 | ≥ 7.30 | ≥ 7.30 |  |  | ≥ 7.30 | ≤ 50 | 80 to 100 |  |  |
| C#Cc1cccc2cc(O)cc(-c3ncc4c(N5CCCOCC5)nc(OCC5(CN6CCN(CC7CCC8(CC7)CCN(C(=O)c7ccc(OC)c(N9CCC(=O)NC9=O)c7)CC8)CC6)CC5)nc4c3F)c12 [Example 39, 1-(5-(9-((4-((1-(((7-(8-ethynyl-3-hydroxynaphthalen-1-yl)-8-fluoro-4-(1,4-oxazepan-4-yl)pyrido[4,3-d]pyrimidin-2-yl)oxy)methyl)cyclopropyl)methyl)piperazin-1-yl)methyl)-3-azaspiro[5.5]undecane-3-carbonyl)-2-methoxyphenyl)dihydropyrimidine-2,4(1H,3H)-dione] |  | ≤ 50 | 80 to 100 |  | 7.45 |  |  |  | 7.93 | ≤ 50 | 50 to 80 | 7.06 |  |  |  |  |
| C#Cc1c(F)ccc2cc(O)cc(-c3ncc4c(N5CCOCC(C)(O)C5)nc(OCC5(CN6CCN(CC7CCC8(CC7)CCN(C(=O)c7ccc(OC)c(N9CCC(=O)NC9=O)c7)CC8)CC6)CC5)nc4c3F)c12 (stereo not drawn) [Example 165, 1-(5-(9-((4-((1-(((7-(8-ethynyl-7-fluoro-3-hydroxynaphthalen-1-yl)-8-fluoro-4-(6-hydroxy-6-methyl-1,4-oxazepan-4-yl)pyrido[4,3-d]pyrimidin-2-yl)oxy)methyl)cyclopropyl)methyl)piperazin-1-yl)methyl)-3-azaspiro[5.5]undecane-3-carbonyl)-2-methoxyphenyl)dihydropyrimidine-2,4(1H,3H)-dione] | 7.56 | 5.9 | 100 | 6.96 | 8.34 | 7.81 | 7.28 | 7.73 | 8.14 | 13.4 | 100 | 7.72 |  |  | 7.6 | 100 |
| CCc1cccc2cc(O)cc(-c3ncc4c(N5CCC[C@@](C)(O)C5)nc(OCC5(CN6CCN(CC7CCC8(CC7)CCN(C(=O)c7ccc(OC)c(N9CCC(=O)NC9=O)c7)CC8)CC6)CC5)nc4c3F)c12 [Example 25, (R)-1-(5-(9-((4-((1-(((7-(8-ethyl-3-hydroxynaphthalen-1-yl)-8-fluoro-4-(3-hydroxy-3-methylpiperidin-1-yl)pyrido[4,3-d]pyrimidin-2-yl)oxy)methyl)cyclopropyl)methyl)piperazin-1-yl)methyl)-3-azaspiro[5.5]undecane-3-carbonyl)-2-methoxyphenyl)dihydropyrimidine-2,4(1H,3H)-dione] | ≥ 7.30 | ≤ 50 | 80 to 100 | 6.30 to 7.00 | 8.61 | ≥ 7.30 | ≥ 7.30 | ≥ 7.30 | 6.30 to 7.00 |  |  | ≥ 7.30 |  |  |  |  |

From patent US20260167622A1, “PAN-KRAS DEGRADING AGENT, AND PREPARATION METHOD THEREFOR AND USE THEREOF” (LEADINGTAC PHARMACEUTICAL (SHAOXING) CO., LTD., priority 2022, published 2026)
